According to patent US9738591B2, “Antimicrobial compounds” (priority 2009, dated 2017):
Several values for one entry are separate records, joined by “and”; a condition that tells them apart may be missing. Equal values may be shown once.

Legend:
[1] = tested on: Staphylococcus aureus NCTC 6571/ATCC 9144; experiment: Disk diffusion; details: for Zone of inhibition, S. aureus NCTC 6571: analogues in DMSO, protocol of Example 3; for zones of inhibition with S aureus NCTC6571: applied at 10 mg/ml; for Zone of Inhibition: S. aureus NCTC 6571
[2] = tested on: E. coli NCTC 10418; experiment: Disk diffusion; details: for Zone of inhibition, E. coli NCTC 10418: analogues in DMSO, protocol of Example 3; for Zone of Inhibition: E. coli NCTC 10418
[3] = tested on: Shigella flexneri NCTC 8192; experiment: Disk diffusion; type: cell-based; details: S. flexneri NCTC 8192
Experimental: Plates were incubated at 35° C.

[4] = tested on: Aeromonas hydrophila NCTC 8049/ATCC 7966; experiment: Disk diffusion; details: A. hydrophila NCTC 8049
[5] = tested on: Citrobacter freundii NCTC 9750/ATCC 8090; experiment: Disk diffusion; details: C. freundii NCTC 9750
[6] = tested on: Escherichia coli NCTC 10538; experiment: Disk diffusion; details: E. coli NCTC 10538
[7] = tested on: Moraxella catarrhalis NCTC 3625; experiment: Disk diffusion; details: M. catarrhalis NCTC 3625
[8] = tested on: Proteus mirabilis NCTC 10975; experiment: Disk diffusion; details: P. mirabilis NCTC 10975
[9] = tested on: Pseudomonas aeruginosa NCTC 10662; experiment: Disk diffusion; details: P. aeruginosa NCTC 10662
[10] = tested on: Salmonella enterica subsp. enterica serovar Typhimurium ATCC 13311; experiment: Disk diffusion; details: S. typhimurium ATCC 13311
[11] = tested on: Stenotrophomonas maltophilia ATCC 13637; experiment: Disk diffusion; details: S. maltophilia ATCC 13637
[12] = tested on: Yersinia enterocolitica clinical 26609; experiment: Disk diffusion; details: Y. enterocolitica clinical 26609
[13] = tested on: Bacillus cereus ATCC 13061; experiment: Disk diffusion; details: B. cereus ATCC 13061
[14] = tested on: Bacillus subtilis ATCC 6633; experiment: Disk diffusion; details: B. subtilis ATCC 6633
[15] = tested on: Enterococcus faecalis NCTC 775; experiment: Disk diffusion; details: E. faecalis NCTC 775
[16] = tested on: Listeria monocytogenes NCTC 7973; experiment: Disk diffusion; details: L. monocytogenes NCTC 7973
[17] = tested on: Micrococcus luteus ATCC 10240; experiment: Disk diffusion; details: M. luteus ATCC 10240
[18] = tested on: Staphylococcus aureus (methicillin resistant) NCTC 10442; experiment: Disk diffusion; details: S. aureus NCTC 10442
[19] = tested on: Staphylococcus epidermidis ATCC 12228; experiment: Disk diffusion; details: S. epidermidis ATCC 1228
[20] = tested on: Staphylococcus xylosus ATCC 29971; experiment: Disk diffusion; details: S. xylosus ATCC 29971
[21] = tested on: Streptococcus pneumoniae ATCC 49619; experiment: Disk diffusion; details: S. pneumoniae ATCC 49619
[22] = tested on: Streptococcus pyogenes NCTC 8191; experiment: Disk diffusion; details: S. pyogenes NCTC 8191
[23] = tested on: A. calcoaceticus ATCC 15308; experiment: Disk diffusion
[24] = tested on: K. pneumoniae NCTC 10896; experiment: Disk diffusion
[25] = tested on: V. cholerae non-01 clinical; experiment: Disk diffusion
[26] = tested on: C. albicans ATCC 90028; experiment: Disk diffusion
[27] = tested on: S. typhimurium TA98, TA100 and TA1535; experiment: Ames Test for mutagenic activity, no metabolic activation; details: 5 μg/plate, duplicate plates

Compound: CCCCOC(=O)/C=C/c1ccc(-c2nc(-c3ccc(/C=C/C(=O)OCCCC)cc3)nc(-c3ccc(/C=C/C(=O)OCCCC)cc3)n2)cc1 [TCT003]
- Zone of inhibition, S. aureus NCTC 6571 [1]: 0 mm
- Zone of inhibition, E. coli NCTC 10418 [2]: 0 mm

Compound: O=C(O)c1ccc(CCc2cccc(CCc3ccc(C(=O)O)cc3)c2)cc1 [DSB004]
- zones of inhibition with S aureus NCTC6571 [1]: no zones of inhibition

Compound: C(=C\c1cc(/C=C/c2ccncc2)cc(/C=C/c2ccncc2)c1)/c1ccncc1 [TSB053]
- Zone of inhibition, S. aureus NCTC 6571 [1]: 0 mm

Compound: O=C(O)c1ccc(CCc2ccc(CCc3ccc(C(=O)O)cc3)c(CCc3ccc(C(=O)O)cc3)c2)cc1 [TSB068]
- Zone of Inhibition [3]: 0 mm
- Zone of Inhibition [4]: 7 mm
- Zone of Inhibition [5]: 0 mm
- Zone of Inhibition [6]: 0 mm
- Zone of Inhibition [7]: 32 mm
- Zone of Inhibition [8]: 0 mm
- Zone of Inhibition [9]: 0 mm
- Zone of Inhibition [10]: 0 mm
- Zone of Inhibition [11]: 0 mm
- Zone of Inhibition [12]: 0 mm
- Zone of Inhibition [13]: 0 mm
- Zone of Inhibition [14]: 0 mm
- Zone of Inhibition [15]: 0 mm
- Zone of Inhibition [16]: 15 mm
- Zone of Inhibition [17]: 8 mm
- Zone of Inhibition [1]: 8 mm
- Zone of Inhibition [18]: 0 mm
- Zone of Inhibition [19]: 0 mm
- Zone of Inhibition [20]: 0 mm
- Zone of Inhibition [21]: 23 mm
- Zone of Inhibition [22]: 20 mm
- Zone of Inhibition [2]: 0 mm
- Zone of Inhibition [23]: 0 mm
- Zone of Inhibition [24]: 0 mm
- Zone of Inhibition [25]: 0 mm
- Zone of Inhibition [26]: 0 mm

Compound: N#Cc1ccc(/C=C/c2cc(/C=C/c3ccc(C#N)cc3)cc(/C=C/c3ccc(C#N)cc3)c2)cc1 [TSB063]
- Zone of inhibition, S. aureus NCTC 6571 [1]: 0 mm
- Zone of inhibition, E. coli NCTC 10418 [2]: 0 mm

Compound: Cc1ccc(/C=C/c2cc(/C=C/c3ccc(C)cc3)cc(/C=C/c3ccc(C)cc3)c2)cc1 [TSB037]
- Zone of inhibition, S. aureus NCTC 6571 [1]: 0 mm
- Zone of inhibition, E. coli NCTC 10418 [2]: 0 mm

Compound: O=C(O)c1ccc(/C=C/c2ccc(/C=C/c3ccc(C(=O)O)cc3)c(/C=C/c3ccc(C(=O)O)cc3)c2)cc1 [TSB067]
- Zone of Inhibition [3]: 0 mm
- Zone of Inhibition [4]: 7 mm
- Zone of Inhibition [5]: 0 mm
- Zone of Inhibition [6]: 7.5 mm
- Zone of Inhibition [7]: 32 mm
- Zone of Inhibition [8]: 0 mm
- Zone of Inhibition [9]: 0 mm
- Zone of Inhibition [10]: 0 mm
- Zone of Inhibition [11]: 0 mm
- Zone of Inhibition [12]: 0 mm
- Zone of Inhibition [13]: 0 mm
- Zone of Inhibition [14]: 0 mm
- Zone of Inhibition [15]: 0 mm
- Zone of Inhibition [16]: 12 mm
- Zone of Inhibition [17]: 20 mm
- Zone of Inhibition [1]: 14 mm
- Zone of Inhibition [18]: 12 mm
- Zone of Inhibition [19]: 11 mm
- Zone of Inhibition [20]: 0 mm
- Zone of Inhibition [21]: 16 mm
- Zone of Inhibition [22]: 14 mm
- Zone of Inhibition [2]: 6.5 mm
- Zone of Inhibition [23]: 0 mm
- Zone of Inhibition [24]: 0 mm
- Zone of Inhibition [25]: 0 mm
- Zone of Inhibition [26]: 0 mm

Compound: CCCCOC(=O)/C=C/c1ccc(-c2cc(-c3ccc(/C=C/C(=O)OCCCC)cc3)cc(-c3ccc(/C=C/C(=O)OCCCC)cc3)c2)cc1 [TCB003]
- Zone of inhibition, S. aureus NCTC 6571 [1]: 0 mm

Compound: CC(C)Oc1ccc(/C=C/c2cc(/C=C/c3ccc(OC(C)C)c(OC(C)C)c3)cc(/C=C/c3ccc(OC(C)C)c(OC(C)C)c3)c2)cc1OC(C)C [TSB041]
- Zone of inhibition, S. aureus NCTC 6571 [1]: 0 mm
- Zone of inhibition, E. coli NCTC 10418 [2]: 0 mm

Compound: CC(=O)c1ccc(/C=C/c2cc(/C=C/c3ccc(C(C)=O)cc3)cc(/C=C/c3ccc(C(C)=O)cc3)c2)cc1 [TSB025]
- Zone of inhibition, S. aureus NCTC 6571 [1]: 0 mm
- Zone of inhibition, E. coli NCTC 10418 [2]: 0 mm

Compound: [N-]=[N+]=[N-] [sodium azide, reference compound]
- Number of colonies, Positive Control ([27]; TA100, negative control 113, 96): 350 and 360
- Number of colonies, Positive Control ([27]; TA1535, negative control 28, 29): 600

Compound: O=C(O)c1ccc(CCc2cc(CCc3ccc(C(=O)O)cc3)c(CCc3ccc(C(=O)O)cc3)cc2CCc2ccc(C(=O)O)cc2)cc1 [QSB002]
- zones of inhibition with S aureus NCTC6571 [1]: no zones of inhibition

Compound: COc1ccc(/C=C/c2cc(/C=C/c3ccc(OC)cc3)cc(/C=C/c3ccc(OC)cc3)c2)cc1 [TSB019]
- Zone of inhibition, S. aureus NCTC 6571 [1]: 0 mm
- Zone of inhibition, E. coli NCTC 10418 [2]: 0 mm

Compound: CC(=O)Oc1ccc(/C=C/c2cc(/C=C/c3ccc(OC(C)=O)cc3)cc(/C=C/c3ccc(OC(C)=O)cc3)c2)cc1 [TSB023]
- Zone of inhibition, S. aureus NCTC 6571 [1]: 0 mm
- Zone of inhibition, E. coli NCTC 10418 [2]: 0 mm

Compound: O=C(O)c1ccc(CCc2ccc(CCc3ccc(C(=O)O)cc3)cc2)cc1 [DSD002]
- zones of inhibition with S aureus NCTC6571 [1]: no zones of inhibition

Compound: O=C(O)/C=C/c1cc(/C=C/C(=O)O)cc(/C=C/C(=O)O)c1 [TAB001]
- Zone of inhibition, S. aureus NCTC 6571 [1]: 0 mm

Compound: O=C(O)/C=C/c1ccc(-c2cc(-c3ccc(/C=C/C(=O)O)cc3)cc(-c3ccc(/C=C/C(=O)O)cc3)c2)cc1 [TCB001]
- Zone of inhibition, S. aureus NCTC 6571 [1]: 11 mm

Compound: O=C(O)c1ccc(/C=C/c2cc(/C=C/c3ccc(C(=O)O)cc3)c(/C=C/c3ccc(C(=O)O)cc3)cc2/C=C/c2ccc(C(=O)O)cc2)cc1 [QSB001]
- Zone of Inhibition [3]: 0 mm
- Zone of Inhibition [4]: 7 mm
- Zone of Inhibition [5]: 8.5 mm
- Zone of Inhibition [6]: 7.5 mm
- Zone of Inhibition [7]: 18 mm
- Zone of Inhibition [8]: 0 mm
- Zone of Inhibition [9]: 0 mm
- Zone of Inhibition [10]: 8.5 mm
- Zone of Inhibition [11]: 8 mm
- Zone of Inhibition [12]: 7.5 mm
- Zone of Inhibition [13]: 0 mm
- Zone of Inhibition [14]: 0 mm
- Zone of Inhibition [15]: 0 mm
- Zone of Inhibition [16]: 0 mm
- Zone of Inhibition [17]: 0 mm
- Zone of Inhibition [1]: 8.5 mm
- Zone of Inhibition [18]: 0 mm
- Zone of Inhibition [19]: 0 mm
- Zone of Inhibition [20]: 0 mm
- Zone of Inhibition [21]: 9 mm
- Zone of Inhibition [22]: 8 mm
- Zone of Inhibition [2]: 7 mm
- Zone of Inhibition [23]: 0 mm
- Zone of Inhibition [24]: 8 mm
- Zone of Inhibition [25]: 8 mm
- Zone of Inhibition [26]: 0 mm

Compound: COc1cc(/C=C/c2cc(/C=C/c3cc(OC)c(OC)c(OC)c3)cc(/C=C/c3cc(OC)c(OC)c(OC)c3)c2)cc(OC)c1OC [TSB049]
- Zone of inhibition, S. aureus NCTC 6571 [1]: 0 mm
- Zone of inhibition, E. coli NCTC 10418 [2]: 0 mm

Compound: C(=C\c1cc(/C=C/c2ccc(-c3nnn[nH]3)cc2)cc(/C=C/c2ccc(-c3nnn[nH]3)cc2)c1)/c1ccc(-c2nnn[nH]2)cc1 [TSB065]
- Zone of inhibition, S. aureus NCTC 6571 [1]: 14 mm
- Zone of inhibition, E. coli NCTC 10418 [2]: 0 mm

Compound: CN(C)c1ccc(/C=C/c2cc(/C=C/c3ccc(N(C)C)cc3)cc(/C=C/c3ccc(N(C)C)cc3)c2)cc1 [TSB009]
- Zone of inhibition, S. aureus NCTC 6571 [1]: 0 mm

Compound: O=C(O)c1ccc(/C=C/c2ccc(/C=C/c3ccc(C(=O)O)cc3)cc2)cc1 [DSB001]
- zones of inhibition with S aureus NCTC6571 [1]: no zones of inhibition
